Reference: PubChem BioAssay (NCI)
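Following 48 hours of exposure in 96-well plates, responses at five concentrations were used to interpolate endpoints linearly. Here, GI50 denotes the concentration required for 50% inhibition of growth. TGI denotes the concentration required for complete inhibition of growth.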

Legend:
Assay in all cases: NCI-60 cell line screen, 48 h
CCRF-CEM leukemia = test system: CCRF-CEM leukemia
SNB-75 CNS = test system: SNB-75 CNS
LOX IMVI melanoma = test system: LOX IMVI melanoma
DU-145 prostate = test system: DU-145 prostate
IGROV1 ovarian = test system: IGROV1 ovarian
SNB-19 CNS = test system: SNB-19 CNS
OVCAR-4 ovarian = test system: OVCAR-4 ovarian
HT29 colon = test system: HT29 colon
HOP-62 NSCLC = test system: HOP-62 NSCLC
SK-MEL-2 melanoma = test system: SK-MEL-2 melanoma
COLO 205 colon = test system: COLO 205 colon
K-562 leukemia = test system: K-562 leukemia
KM12 colon = test system: KM12 colon
SK-MEL-5 melanoma = test system: SK-MEL-5 melanoma
T-47D breast = test system: T-47D breast
ACHN renal = test system: ACHN renal
MCF7 breast = test system: MCF7 breast
SK-OV-3 ovarian = test system: SK-OV-3 ovarian
A498 renal = test system: A498 renal
SF-268 CNS = test system: SF-268 CNS
HOP-92 NSCLC = test system: HOP-92 NSCLC
HCT-15 colon = test system: HCT-15 colon
NCI-H522 lung = test system: NCI-H522 lung
SW-620 colon = test system: SW-620 colon
EKVX NSCLC = test system: EKVX NSCLC
HL-60(TB) leukemia = test system: HL-60(TB) leukemia
SK-MEL-28 melanoma = test system: SK-MEL-28 melanoma
MOLT-4 leukemia = test system: MOLT-4 leukemia
HS 578T breast = test system: HS 578T breast
U251 CNS = test system: U251 CNS
UACC-257 melanoma = test system: UACC-257 melanoma
A549 NSCLC = test system: A549 NSCLC
UO-31 renal = test system: UO-31 renal
CAKI-1 renal = test system: CAKI-1 renal
OVCAR-8 ovarian = test system: OVCAR-8 ovarian
NCI-H460 lung = test system: NCI-H460 lung
786-0 renal = test system: 786-0 renal
TK-10 renal = test system: TK-10 renal
SN12C renal = test system: SN12C renal
SF-295 CNS = test system: SF-295 CNS
NCI-H23 lung = test system: NCI-H23 lung
MDA-MB-435 = test system: MDA-MB-435
RPMI-8226 leukemia = test system: RPMI-8226 leukemia
HCC-2998 colon = test system: HCC-2998 colon
MALME-3M melanoma = test system: MALME-3M melanoma
OVCAR-5 ovarian = test system: OVCAR-5 ovarian
BT-549 breast = test system: BT-549 breast
NCI-H226 lung = test system: NCI-H226 lung
UACC-62 melanoma = test system: UACC-62 melanoma
M14 melanoma = test system: M14 melanoma
SR leukemia = test system: SR leukemia
OVCAR-3 ovarian = test system: OVCAR-3 ovarian
RXF 393 renal = test system: RXF 393 renal
MDA-MB-231 breast = test system: MDA-MB-231 breast
SF-539 CNS = test system: SF-539 CNS
HCT-116 colon = test system: HCT-116 colon
PC-3 prostate = test system: PC-3 prostate
NCI/ADR-RES ovarian = test system: NCI/ADR-RES ovarian

O=C(Nc1cccc(Cl)c1)Nc1nccs1 gave a GI50 (CCRF-CEM leukemia) of 27 µM, a TGI (CCRF-CEM leukemia) greater than 100 µM and a GI50 (SNB-75 CNS) of 20 µM. The TGI (SNB-75 CNS) was 56.1 µM, the GI50 (LOX IMVI melanoma) was 26.9 µM and the TGI (LOX IMVI melanoma) was greater than 100 µM. It also gave a GI50 (DU-145 prostate) of 24.1 µM, a TGI (DU-145 prostate) of 65.2 µM and a GI50 (IGROV1 ovarian) of 16.4 µM. It also gave a TGI (IGROV1 ovarian) of 70.7 µM, a GI50 (SNB-19 CNS) of 36.6 µM and a TGI (SNB-19 CNS) greater than 100 µM. It also gave a GI50 (OVCAR-4 ovarian) of 27.5 µM, a TGI (OVCAR-4 ovarian) greater than 100 µM and a GI50 (HT29 colon) of 19.7 µM. The TGI (HT29 colon) was 46.6 µM, the GI50 (HOP-62 NSCLC) was 25.3 µM and the TGI (HOP-62 NSCLC) was greater than 100 µM. It also gave a GI50 (SK-MEL-2 melanoma) of 24.3 µM, a TGI (SK-MEL-2 melanoma) of 52.1 µM and a GI50 (COLO 205 colon) of 16 µM. The TGI (COLO 205 colon) was 32.1 µM, the GI50 (K-562 leukemia) was 20.3 µM and the TGI (K-562 leukemia) was greater than 100 µM. The GI50 (KM12 colon) was 8.5 µM, the TGI (KM12 colon) was 37.5 µM and the GI50 (SK-MEL-5 melanoma) was 15.2 µM. For the same compound, the TGI (SK-MEL-5 melanoma) was 30.6 µM, the GI50 (T-47D breast) was 12.7 µM and the TGI (T-47D breast) was 78 µM. It also gave a GI50 (ACHN renal) of 30.5 µM, a TGI (ACHN renal) greater than 100 µM and a GI50 (MCF7 breast) of 7.97 µM. It also gave a TGI (MCF7 breast) greater than 100 µM, a GI50 (SK-OV-3 ovarian) of 20.8 µM and a TGI (SK-OV-3 ovarian) of 63.9 µM. For the same compound, the GI50 (A498 renal) was 12.8 µM, the TGI (A498 renal) was 47.7 µM and the GI50 (SF-268 CNS) was 30 µM. For the same compound, the TGI (SF-268 CNS) was greater than 100 µM, the GI50 (HOP-92 NSCLC) was 23.2 µM and the TGI (HOP-92 NSCLC) was 65 µM. It also gave a GI50 (HCT-15 colon) of 20.5 µM, a TGI (HCT-15 colon) greater than 100 µM and a GI50 (NCI-H522 lung) of 13.8 µM. It also gave a TGI (NCI-H522 lung) of 39.9 µM, a GI50 (SW-620 colon) of 26.6 µM and a TGI (SW-620 colon) greater than 100 µM. The GI50 (EKVX NSCLC) was 19.8 µM, the TGI (EKVX NSCLC) was 69.2 µM and the GI50 (HL-60(TB) leukemia) was 28.1 µM. For the same compound, the TGI (HL-60(TB) leukemia) was 89.2 µM, the GI50 (SK-MEL-28 melanoma) was 31.8 µM and the TGI (SK-MEL-28 melanoma) was greater than 100 µM. It also gave a GI50 (MOLT-4 leukemia) of 21.4 µM, a TGI (MOLT-4 leukemia) of 82 µM and a GI50 (HS 578T breast) of 15.3 µM. It also gave a TGI (HS 578T breast) of 43.6 µM, a GI50 (U251 CNS) of 18.2 µM and a TGI (U251 CNS) of 50.7 µM. The GI50 (UACC-257 melanoma) was 22.4 µM, the TGI (UACC-257 melanoma) was 61.8 µM and the GI50 (A549 NSCLC) was 26.5 µM. It also gave a TGI (A549 NSCLC) greater than 100 µM, a GI50 (UO-31 renal) of 17.7 µM and a TGI (UO-31 renal) of 53.6 µM. For the same compound, the GI50 (CAKI-1 renal) was 15.6 µM, the TGI (CAKI-1 renal) was 43.5 µM and the GI50 (OVCAR-8 ovarian) was 25.1 µM. For the same compound, the TGI (OVCAR-8 ovarian) was 84.8 µM, the GI50 (NCI-H460 lung) was 17.1 µM and the TGI (NCI-H460 lung) was 42.4 µM. The GI50 (786-0 renal) was 26.6 µM, the TGI (786-0 renal) was 63 µM and the GI50 (TK-10 renal) was 25.8 µM. It also gave a TGI (TK-10 renal) of 60 µM, a GI50 (SN12C renal) of 37.1 µM and a TGI (SN12C renal) greater than 100 µM. It also gave a GI50 (SF-295 CNS) of 15.8 µM, a TGI (SF-295 CNS) of 39.5 µM and a GI50 (NCI-H23 lung) of 19.7 µM. For the same compound, the TGI (NCI-H23 lung) was 60.5 µM, the GI50 (MDA-MB-435) was 4 µM and the TGI (MDA-MB-435) was 27.2 µM. It also gave a GI50 (RPMI-8226 leukemia) of 26 µM, a TGI (RPMI-8226 leukemia) of 79.3 µM and a GI50 (HCC-2998 colon) of 21.3 µM. For the same compound, the TGI (HCC-2998 colon) was 51.2 µM, the GI50 (MALME-3M melanoma) was 22.7 µM and the TGI (MALME-3M melanoma) was 64.7 µM. For the same compound, the GI50 (OVCAR-5 ovarian) was 34.8 µM, the TGI (OVCAR-5 ovarian) was greater than 100 µM and the GI50 (BT-549 breast) was 31.6 µM. For the same compound, the TGI (BT-549 breast) was greater than 100 µM, the GI50 (NCI-H226 lung) was 38.7 µM and the TGI (NCI-H226 lung) was greater than 100 µM. For the same compound, the GI50 (UACC-62 melanoma) was 20.4 µM, the TGI (UACC-62 melanoma) was 57.4 µM and the GI50 (M14 melanoma) was 30.2 µM. It also gave a TGI (M14 melanoma) greater than 100 µM, a GI50 (SR leukemia) of 13.6 µM and a TGI (SR leukemia) of 46.7 µM. The GI50 (OVCAR-3 ovarian) was 20.2 µM, the TGI (OVCAR-3 ovarian) was 53.6 µM and the GI50 (RXF 393 renal) was 22.6 µM. For the same compound, the TGI (RXF 393 renal) was 49.4 µM, the GI50 (MDA-MB-231 breast) was 18 µM and the TGI (MDA-MB-231 breast) was 41.8 µM. For the same compound, the GI50 (SF-539 CNS) was 20.6 µM, the TGI (SF-539 CNS) was 61.6 µM and the GI50 (HCT-116 colon) was 26.8 µM. The TGI (HCT-116 colon) was greater than 100 µM, the GI50 (PC-3 prostate) was 24.6 µM and the TGI (PC-3 prostate) was 94.8 µM. For the same compound, the GI50 (NCI/ADR-RES ovarian) was 16.6 µM and the TGI (NCI/ADR-RES ovarian) was 58.9 µM.
